# Data reported in patent publication US12195427B2, “MASP-2 inhibitors and methods of use” (priority 2018, dated 2025).
# Biological target: MASP-2 CCP2-SP (Homo sapiens (Human), UniProt O00187)
# Assay: MASP-2 co-crystallization, X-ray crystallography and structure analysis (H-bonds, van der Waals contacts);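 as to Ligand-pharmacophore element distance, pharmacophore element C2: distance from averaged pharmacophore element to bound ligand; missing value means element absent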;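 as to Ligand-pharmacophore element distance, pharmacophore element C3: distance from averaged pharmacophore element to bound ligand; missing value means element absent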;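 as to Ligand-pharmacophore element distance, pharmacophore element C4: distance from averaged pharmacophore element to bound ligand; missing value means element absent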;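 as to Ligand-pharmacophore element distance, pharmacophore element C5: distance from averaged pharmacophore element to bound ligand; missing value means element absent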
# Design: van der Waals contact distance, MASP-2 HIS 483 atom CD2 / van der Waals contact distance, MASP-2 HIS 483 atom NE2 / van der Waals contact distance, SER 654 C to compound atom / van der Waals contact distance, SER 654 O to compound atom / van der Waals contact distance, TRP 655 C to compound atom / van der Waals contact distance, MASP-2 GLY 528 atom CA / van der Waals contact distance TRP 655 atom CZ3 / van der Waals contact distance TRP 655 atom N / van der Waals contact distance TRP 655 atom CE3 / van der Waals contact distance GLY 656 atom C / van der Waals contact distance GLY 656 atom CA / van der Waals contact distance GLY 656 atom O / van der Waals contact distance, MASP-2 TYR 607 atom CD1 / van der Waals contact distance, MASP-2 PRO 606 atom O / d(C3,CA1) / d(CA1,N1)2 / d(H4,O1) / d(H4,O2) / d(O1,O2) / d(CA1,O2) / d(CA6,O1) / d(CA6,O2) / d(CA1,C5) / d(O2,H3) / d(N2,C2) / d(CA5,N2) / d(N2,C4) / d(N2,C6) / d(N2,CA3) / d(N2,O3) / d(O4,H2): unit not given beside the values
# Conditions: for Ligand-pharmacophore element distance, pharmacophore element C2 / Ligand-pharmacophore element distance, pharmacophore element C3 / Ligand-pharmacophore element distance, pharmacophore element C4 / Ligand-pharmacophore element distance, pharmacophore element C5 / Ligand-pharmacophore element distance, pharmacophore element C6 / Ligand-pharmacophore element distance, pharmacophore element C7 / Ligand-pharmacophore element distance, pharmacophore element CA1 / Ligand-pharmacophore element distance, pharmacophore element CA2 / Ligand-pharmacophore element distance, pharmacophore element CA3 / Ligand-pharmacophore element distance, pharmacophore element CA4 / Ligand-pharmacophore element distance, pharmacophore element CA5 / Ligand-pharmacophore element distance, pharmacophore element CA6: Table A4-1; for H-bond distance to MASP-2 SER 628 atom O: SER 628 O
# Source text: This example illustrates the preparation of recombinant MASP-2 protein, based on UniProt O00187, human mannan-binding lectin serine protease 2. Expression constructs for human MASP-2 CCP2-SP and CCP2-SP-6HIS were generated for recombinant expression in E. coli cells.
# Typically, crystallization hits were obtained by screening against […] 96-well crystallization reagent kits (GRAS6, GRAS2, Hampton Research; MORPHEUS, Molecular Dimensions; Wizard 1&2 Cryo, Rigaku Reagents) and crystal growth was inspected by optical microscopy. Crystals were used directly or further optimized for X-ray diffraction. Crystals were captured with cryogenic loops and dipped into liquid nitrogen directly or cryoprotected with a 20% glycerol in crystallization formulation before flash-cooling in liquid nitrogen.
# Thereafter crystals are transferred once or twice for soaking within the crystallization solution containing the MASP-2 inhibitor.
# Crystals were diffracted with synchrotron X-rays of […] and X-ray diffraction datasets were collected at beamlines SSRL BL9-2, BL14-1, BL12-2 as well as ALS sector 5 using Dectris Pilatus and Eiger detectors. Structures were determined by molecular replacement using portions of the structure 1Q3X as search models and partially refined with Buster 2.10.2 or Refmac 5.8. […] When multiple ligand poses were observed, for instance arising from multiple molecules in the asymmetric unit or refined dual poses within the same molecule, only one pose was selected and analyzed.
# LigPlot+ calls these ‘nonbonded contacts’ or ‘hydrophobic contacts’. Despite the name, there are atom pairings that include possible H-bonds. Thus, in some instances, the Table A2 also contains H-bond interactions.
# [1] = Table A5-1 pharmacophore: distance between elements, S2/S1 region
# [2] = Table A5-2 pharmacophore distance, S3/S4 region
# [3] = Table A7-1, between pharmacophore elements of the bound compound
# [4] = Table A8-6, nearest protein atom in cell to the left
# MASP-2 CCP2-SP, sequence (O00187 445-686): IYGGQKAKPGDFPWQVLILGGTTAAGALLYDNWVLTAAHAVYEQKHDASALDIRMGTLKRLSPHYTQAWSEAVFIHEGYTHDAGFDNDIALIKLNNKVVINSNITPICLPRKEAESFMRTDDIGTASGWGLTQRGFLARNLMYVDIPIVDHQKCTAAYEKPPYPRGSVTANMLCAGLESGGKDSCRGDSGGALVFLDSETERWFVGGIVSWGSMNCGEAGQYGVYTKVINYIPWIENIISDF
# MASP-2 CCP2-SP, sequence (O00187 364-432 partner): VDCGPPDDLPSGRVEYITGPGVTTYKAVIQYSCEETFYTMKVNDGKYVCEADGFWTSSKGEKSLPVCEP
smiles,measurement,setting,value
CC(NC(=O)C1CC(Cc2ccccc2)CN1)C(=O)NCc1cnc2c(c1)c(Cl)cn2C.Cl.Cl (mixture of isomers) [1450_A],"Ligand-pharmacophore element distance, pharmacophore element C2",,0
same,"Ligand-pharmacophore element distance, pharmacophore element C3",,0
same,"Ligand-pharmacophore element distance, pharmacophore element C4",,0
same,"Ligand-pharmacophore element distance, pharmacophore element C5",,0.34
same,"Ligand-pharmacophore element distance, pharmacophore element C6",,0
same,"Ligand-pharmacophore element distance, pharmacophore element C7",,0.72
same,"Ligand-pharmacophore element distance, pharmacophore element CA1",,1.03
same,"Ligand-pharmacophore element distance, pharmacophore element CA2",,0.4
same,"Ligand-pharmacophore element distance, pharmacophore element CA3",,0
same,"Ligand-pharmacophore element distance, pharmacophore element CA4",,0
same,"Ligand-pharmacophore element distance, pharmacophore element CA5",,0
same,"Ligand-pharmacophore element distance, pharmacophore element CA6",,0
same,"d(CA1,C5)",[1],3.55
same,"d(CA1,O1)",[1],5.47
same,"d(CA1,O2)",[1],4.73
same,"d(CA1,O4)",[1],1.75
same,"d(H4,O1)",[1],3.16
same,"d(H4,O2)",[1],3.57
same,"d(O1,O2)",[1],3.11
same,"d(N2,CA2)",[2],5.88
same,"d(O2,H3)",[2],2.31
same,"d(O2,N2)",[2],2.81
same,"a(C5, CA1, O1)",Table A6-1 pharmacophore angle,150.97
same,"a(CA1, O1, O2)",Table A6-1 pharmacophore angle,94.14
same,"a(O1, CA1, C7)",Table A6-1 pharmacophore angle,136.18
same,"a(O1, CA1, O4)",Table A6-1 pharmacophore angle,68.80
same,"a(O1, O2, H4)",Table A6-1 pharmacophore angle,125.38
same,"a(O1, O2, H3)",Table A6-2 pharmacophore angle,127.40
same,"a(O1, O2, N2)",Table A6-2 pharmacophore angle,139.62
same,"a(O2, N2, CA2)",Table A6-2 pharmacophore angle,154.51
same,"Pharmacophore torsion angle a(O1, O2, N2, CA2)","Table A7-2, between pharmacophore elements of the bound compound",120.74
C[C@H](NC(=O)[C@H]1C[C@@H](c2ccccc2)CCN1)C(=O)NCc1ccc(N)nc1 (stereo in doubt) [compound 1025],H-bond distance to MASP-2 ASP 627 atom OD2,"Table A1 (H-Bonds), ASP 627 OD2",3.11
same,H-bond distance to MASP-2 SER 628 atom O,Table A1 (H-Bonds),2.38
same,"van der Waals contact distance, MASP-2 HIS 483 atom CD2",Table A2-1,3.68
same,"van der Waals contact distance, MASP-2 HIS 483 atom CE1",Table A2-1,3.81
same,"van der Waals contact distance, MASP-2 PHE 529 atom CZ",Table A2-3,3.88
same,"van der Waals contact distance, SER 654 O to compound atom",Table A2-12,3.51
same,"van der Waals contact distance, TRP 655 CA to compound atom",Table A2-12,3.68
same,"van der Waals contact distance, MASP-2 amino acid atom to compound atom",Table A2 section before Table A2-8,3.84
C[C@H](NC(=O)C1C[C@@H](c2ccccc2)CCN1)C(=O)NCc1ccc(C(=N)N)cc1 (stereo in doubt) [compound 1063],H-bond distance to MASP-2 GLY 656 atom N,"Table A1 (H-Bonds), GLY 656 N",3.25
same,H-bond distance to MASP-2 SER 628 atom O,Table A1 (H-Bonds),2.93
same,H-bond distance to MASP-2 SER 654 atom O,"Table A1 (H-Bonds), SER 654 O",2.94
same,H-bond distance to MASP-2 SER 657 atom O,"Table A1 (H-Bonds), SER 657 O",2.83
same,"van der Waals contact distance, MASP-2 PHE 529 atom CD1",Table A2-3,3.71
same,"van der Waals contact distance, MASP-2 amino acid atom to compound atom","Table A2-5: TYR 607 (CE1, CE2, OH), PRO 608 (CD, CG), SER 611 (CA)",3.85
same,van der Waals contact distance GLY 656 atom C,"Table A2-13, MASP-2 GLY 656 C",3.36
same,van der Waals contact distance TRP 655 atom O,"Table A2-13, MASP-2 TRP 655 O",3.84
same,van der Waals contact distance SER 657 atom C,"Table A2-14, MASP-2 SER 657 C, columns c12-c13 (inferred)",3.75
same,"Ligand-pharmacophore element distance, pharmacophore element C2",,0.48
same,"Ligand-pharmacophore element distance, pharmacophore element C3",,0
same,"Ligand-pharmacophore element distance, pharmacophore element C4",,0
same,"Ligand-pharmacophore element distance, pharmacophore element C5",,0
same,"Ligand-pharmacophore element distance, pharmacophore element C6",,0
same,"Ligand-pharmacophore element distance, pharmacophore element C7",,0
same,"Ligand-pharmacophore element distance, pharmacophore element CA1",,0.3
same,"Ligand-pharmacophore element distance, pharmacophore element CA2",,0.85
same,"Ligand-pharmacophore element distance, pharmacophore element CA3",,0
same,"Ligand-pharmacophore element distance, pharmacophore element CA4",,0
same,"Ligand-pharmacophore element distance, pharmacophore element CA5",,0
same,"Ligand-pharmacophore element distance, pharmacophore element CA6",,0
same,"d(CA1,N1)",[1],3.56
same,"d(CA1,O1)",[1],4.95
same,"d(CA1,O2)",[1],3.58
same,"d(H4,O1)",[1],5.37
same,"d(H4,O2)",[1],3.82
same,"d(O1,O2)",[1],3.31
same,"d(N2,C2)",[2],1.38
same,"d(N2,CA2)",[2],5.62
same,"d(O2,H3)",[2],4.92
same,"d(O2,N2)",[2],3.36
same,"a(CA1, O1, O2)",Table A6-1 pharmacophore angle,88.32
same,"a(O1, O2, H4)",Table A6-1 pharmacophore angle,142.43
same,"A(N1, CA1, O1) a)","Table A6-1 pharmacophore angle, all compounds with protonatable center N1 except Methyl-amino-pyridine",167.99
same,"a(O1, O2, H3)",Table A6-2 pharmacophore angle,157.64
same,"a(O1, O2, N2)",Table A6-2 pharmacophore angle,139.49
same,"a(O2, N2, C2)",Table A6-2 pharmacophore angle,118.75
same,"a(O2, N2, CA2)",Table A6-2 pharmacophore angle,154.05
same,"Pharmacophore torsion angle a(H4, O1, O2, H3)",[3],54.13
same,"Pharmacophore torsion angle a(H4, O1, O2, N2)",[3],155.02
same,"Pharmacophore torsion angle a(N1, CA1, O2, H4)",[3],−130.71
same,"Pharmacophore torsion angle a(O1, H4, O2, CA1)",[3],−74.94
same,"Pharmacophore torsion angle a(O1, O2, N2, C2)",[3],150.29
same,Pharmacophore protein distance to MET_658 (first MET_658 column),"Table A8-6, 6th residue column, nearest protein atom in cell to the left",1.74
same,Pharmacophore protein distance to MET_658 (second MET_658 column),"Table A8-6, 9th residue column, nearest protein atom in cell to the left",2.75
same,Pharmacophore protein distance to GLY_528,[4],3.37
same,Pharmacophore protein distance to PHE_529,[4],3.00
same,Pharmacophore protein distance to PRO_608,[4],4.92
same,Pharmacophore protein distance to SER_611,[4],3.00
same,Pharmacophore protein distance to TRP_655,"Table A8-6, pharmacophore elements C6, CA3, O3, H1, nearest protein atom in cell to the left",3.73
